Data published in paper PMC9525273 (Nature Communications, 2022).
Where “and” joins values, the source holds several entries; their conditions need not be identical. Identical values can stand only once. Like-named read-outs stand apart in the source and are kept apart here.

Experiments:
[1] = biological target: T1, PfATP4^G358S (membranes from Dd2-Polδ-PfATP4^G358S parasites) (Plasmodium falciparum, UniProt A0A143ZZK9, G358S); test: Membrane ATPase assay, ATP4-associated (Na+-dependent) ATPase activity; assay type: biochemical; set-up: IC50 for inhibition of ATP4-associated ATPase activity, MEAN / IC50 for inhibition of ATP4-associated ATPase activity: unit: nM; conditions: for PfATP4-associated ATPase activity (% of control): Dd2-Polδ-PfATP4G358S
T1 sequence (A0A143ZZK9 1-1264 G358S): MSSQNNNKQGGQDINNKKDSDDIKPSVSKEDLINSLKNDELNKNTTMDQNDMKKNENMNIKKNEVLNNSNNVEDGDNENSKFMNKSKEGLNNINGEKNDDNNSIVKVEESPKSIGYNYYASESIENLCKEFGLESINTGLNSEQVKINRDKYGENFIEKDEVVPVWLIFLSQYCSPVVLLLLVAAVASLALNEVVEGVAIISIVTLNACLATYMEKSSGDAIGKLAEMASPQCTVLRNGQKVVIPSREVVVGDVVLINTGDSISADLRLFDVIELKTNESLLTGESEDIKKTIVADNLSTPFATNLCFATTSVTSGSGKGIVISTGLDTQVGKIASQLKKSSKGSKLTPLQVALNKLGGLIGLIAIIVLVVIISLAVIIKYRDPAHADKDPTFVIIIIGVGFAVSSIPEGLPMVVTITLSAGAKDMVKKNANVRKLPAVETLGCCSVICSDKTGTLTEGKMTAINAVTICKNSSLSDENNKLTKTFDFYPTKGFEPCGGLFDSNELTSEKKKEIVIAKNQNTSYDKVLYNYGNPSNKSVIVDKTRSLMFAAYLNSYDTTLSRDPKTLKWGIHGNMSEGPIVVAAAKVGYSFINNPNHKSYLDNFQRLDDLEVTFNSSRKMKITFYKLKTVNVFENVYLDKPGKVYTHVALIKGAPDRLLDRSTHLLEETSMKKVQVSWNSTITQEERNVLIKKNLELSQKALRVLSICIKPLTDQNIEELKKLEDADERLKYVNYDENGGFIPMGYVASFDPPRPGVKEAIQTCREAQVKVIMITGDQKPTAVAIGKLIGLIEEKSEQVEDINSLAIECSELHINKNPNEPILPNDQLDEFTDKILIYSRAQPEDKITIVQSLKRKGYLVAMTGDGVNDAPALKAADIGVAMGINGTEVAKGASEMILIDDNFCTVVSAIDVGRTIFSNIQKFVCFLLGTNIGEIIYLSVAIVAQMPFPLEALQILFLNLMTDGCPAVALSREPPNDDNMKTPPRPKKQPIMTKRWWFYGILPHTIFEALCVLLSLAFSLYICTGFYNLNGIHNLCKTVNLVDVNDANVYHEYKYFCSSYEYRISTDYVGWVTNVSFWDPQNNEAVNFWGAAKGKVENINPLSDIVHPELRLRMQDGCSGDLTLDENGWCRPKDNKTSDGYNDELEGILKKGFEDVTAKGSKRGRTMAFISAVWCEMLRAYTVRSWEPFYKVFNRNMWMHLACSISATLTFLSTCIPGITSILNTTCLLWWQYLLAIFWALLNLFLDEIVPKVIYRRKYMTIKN
Description: Membranes from isolated P. falciparum or extracellular T. gondii parasites were prepared by lysing parasites in ice-cold deionized water containing a 1:500 dilution of Protease Inhibitor Cocktail Set III (Merck Millipore), then washing the membrane preparation three times in ice-cold deionized water (with protease inhibitors present for the first two washes)[15]. Protein concentrations in the membrane preparations were measured using a Bradford assay. The PiColorLock Gold Phosphate Detection System (Innova Biosciences) was used to measure the production of Pi from hydrolysis of ATP[15]. Membrane preparations were diluted in either a high Na^+ solution (yielding final conditions in the reactions of 150 mM NaCl, 20 mM KCl, 2 mM MgCl2, 50 mM Tris, pH 7.2) or a Na^+-free solution (yielding final conditions of 150 mM choline chloride, 20 mM KCl, 2 mM MgCl2, 50 mM Tris, pH 7.2) to achieve a total protein concentration of 50 μg/mL. […] The reactions were performed at 37 °C, and were initiated by the addition of 1 mM ATP (Na2ATP۰3H2O; MP Biomedicals) and terminated 10 min later by adding 100 μL of reaction mixture (in duplicate) to 25 μL “Gold mix” in a 96-well plate. […] Background values (averaged from wells containing all components, but to which ATP was not added until after the membrane was exposed to Gold mix) were subtracted from the data. For each treatment, the ATPase activity associated with the (Na^+-dependent) PfATP4 and TgATP4 proteins was calculated by subtracting data obtained in the low Na^+ condition (containing only the 2 mM Na^+ introduced on addition of 1 mM Na2ATP) from that obtained in the high Na^+ condition.

[2] = tested on: NF54^G358S-2 parasites; test: P. falciparum proliferation assay (72 h, flow cytometry, SYBR Green I/MitoTracker); assay type: cell-based, Plasmodium falciparum
Summary of the method: (§1)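 Predominantly ring-stage cultures at 0.3% parasitaemia, 1% haematocrit, in medium with 10% O+ human serum; compound exposure 72 h, DMSO <0.5% (v/v). Live parasites counted by flow cytometry with SYBR Green I and 200 nM MitoTracker Deep Red. IC50/IC90 from linear interpolation of dose-response data.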

[3] = tested on: NF54^CTL parasites; test: as above; assay type: cell-based, Plasmodium falciparum
Summary of the method: as §1

N#Cc1cc(NC(=O)[C@H]2c3ccccc3C(=O)N(CC(F)(F)F)[C@@H]2c2cccnc2)ccc1F [(+)SJ733]
PfATP4-associated ATPase activity (% of control) ([1]; [(+)SJ733] 0.122 nM, MEAN): 85.0 % of control
PfATP4-associated ATPase activity (% of control) ([1]; [(+)SJ733] 0.122 nM, single experiments, 0.000122 µM): 115.8 % of control and 74.1 % of control and 65.2 % of control
PfATP4-associated ATPase activity (% of control) ([1]; [(+)SJ733] 0.244 nM, MEAN): 125.3 % of control
PfATP4-associated ATPase activity (% of control) ([1]; [(+)SJ733] 0.244 nM, single experiments, 0.000244 µM): 139.0 % of control and 119.0 % of control and 117.8 % of control
PfATP4-associated ATPase activity (% of control) ([1]; [(+)SJ733] 0.5 nM, MEAN): 90.2 % of control
PfATP4-associated ATPase activity (% of control) ([1]; [(+)SJ733] 0.5 nM, single experiments, 0.0005 µM): 95.6 % of control and 76.4 % of control and 98.6 % of control
PfATP4-associated ATPase activity (% of control) ([1]; [(+)SJ733] 1.0 nM, MEAN): 98.3 % of control
PfATP4-associated ATPase activity (% of control) ([1]; [(+)SJ733] 2.0 nM, MEAN): 109.4 % of control
PfATP4-associated ATPase activity (% of control) ([1]; [(+)SJ733] 2.0 nM, single experiments, 0.002 µM): 114.6 % of control and 135.7 % of control and 77.8 % of control
PfATP4-associated ATPase activity (% of control) ([1]; [(+)SJ733] 3.9 nM, MEAN): 81.9 % of control
PfATP4-associated ATPase activity (% of control) ([1]; [(+)SJ733] 3.9 nM, single experiments, 0.0039 µM): 93.0 % of control and 73.2 % of control and 79.5 % of control
PfATP4-associated ATPase activity (% of control) ([1]; [(+)SJ733] 7.8 nM, MEAN): 84.3 % of control
PfATP4-associated ATPase activity (% of control) ([1]; [(+)SJ733] 7.8 nM, single experiments, 0.0078 µM): 82.0 % of control and 99.5 % of control and 71.2 % of control
PfATP4-associated ATPase activity (% of control) ([1]; [(+)SJ733] 15.6 nM, MEAN): 119.8 % of control
PfATP4-associated ATPase activity (% of control) ([1]; [(+)SJ733] 15.6 nM, single experiments, 0.0156 µM): 88.8 % of control and 152.3 % of control and 118.3 % of control
PfATP4-associated ATPase activity (% of control) ([1]; [(+)SJ733] 31.3 nM, MEAN): 94.2 % of control
PfATP4-associated ATPase activity (% of control) ([1]; [(+)SJ733] 31.3 nM, single experiments, 0.0313 µM): 92.0 % of control and 104.2 % of control and 86.4 % of control
PfATP4-associated ATPase activity (% of control) ([1]; [(+)SJ733] 62.5 nM, MEAN): 103.2 % of control
PfATP4-associated ATPase activity (% of control) ([1]; [(+)SJ733] 62.5 nM, single experiments, 0.0625 µM): 102.4 % of control and 79.6 % of control and 127.6 % of control
PfATP4-associated ATPase activity (% of control) ([1]; [(+)SJ733] 250 nM, MEAN): 82.2 % of control
PfATP4-associated ATPase activity (% of control) ([1]; [(+)SJ733] 250 nM, single experiments, 0.25 µM): 91.0 % of control and 86.1 % of control and 69.4 % of control
PfATP4-associated ATPase activity (% of control) ([1]; [(+)SJ733] 500 nM, MEAN): 53.9 % of control
PfATP4-associated ATPase activity (% of control) ([1]; [(+)SJ733] 1000 nM, MEAN): 56.2 % of control
PfATP4-associated ATPase activity (% of control) ([1]; [(+)SJ733] 2000 nM, MEAN): 20.4 % of control
PfATP4-associated ATPase activity (% of control) ([1]; [(+)SJ733] 4000 nM, MEAN): -1.2 % of control
PfATP4-associated ATPase activity (% of control) ([1]; [(+)SJ733] 8000 nM, MEAN): -15.8 % of control

N#Cc1cc(NC(=O)[C@H]2c3ccccc3C(=O)N(CC(F)(F)F)[C@@H]2c2cccnc2)ccc1F [(+)-SJ733]
IC50 for inhibition of ATP4-associated ATPase activity ([1]; Dd2-Polδ-PfATP4G358S membranes, single experiments, source data of Table 1 (nM there)): 816 and 877 and 793
IC50 for ATP4-associated ATPase activity ([1]; membranes from Dd2-Polδ-PfATP4G358S, mean ± SEM): 829 ± 25 (3) (P = 5 × 10^−6) nM
IC50 ([2]; NF54G358S-2, single experiments, source data of Fig. 2 (nM in Supplementary Table 5), read-out: IC50 values): 11600 nM and 13800 nM and 13500 nM
FC (IC50) ([2]; NF54G358S-2 compared to NF54WT): 138.1 fold
FC (IC90) ([2]; NF54G358S-2 compared to NF54WT): 152.9 fold
IC90 ([2]; NF54G358S-2 parasites, individual experiments, read-out: IC90 values): 25.5 µM and 23.3 µM and 23.8 µM
IC50 ([2]; Plasmodium falciparum, NF54, NF54G358S-2, 10% human serum, read-out: IC50 ± SEM): 13000 ± 480 nM
IC90 ([2]; Plasmodium falciparum, NF54, NF54G358S-2, 10% human serum, read-out: IC90 ± SEM): 25 ± 0.892 µM
IC50 ([2]; Plasmodium falciparum, NF54, NF54G358S-2, MEAN, source data of Fig. 2, read-out: IC50 values, MEAN): 13000 nM
IC50 ([2]; Plasmodium falciparum, NF54, NF54G358S-2, single experiments, source data of Fig. 2 (nM in Supplementary Table 5), read-out: IC50 values): 12900 nM
IC90 ([2]; Plasmodium falciparum, NF54, NF54G358S-2 parasites, individual experiments, read-out: IC90 values): 27.3 µM
IC90 ([2]; Plasmodium falciparum, NF54, NF54G358S-2 parasites, mean of the experiments, read-out: IC90 values, MEAN): 25 µM
FC (IC50) ([3]; NF54CTL compared to NF54WT): 0.9 fold
FC (IC90) ([3]; NF54CTL compared to NF54WT): 0.9 fold
IC90 ([3]; NF54CTL parasites, individual experiments, read-out: IC90 values): 0.13 µM and 0.155 µM and 0.157 µM
IC50 ([3]; NF54CTL, single experiments, source data of Fig. 2 (nM in Supplementary Table 5), read-out: IC50 values): 85.7 nM and 81.4 nM and 82.7 nM
IC90 ([3]; Plasmodium falciparum, NF54, NF54CTL parasites, mean of the experiments, read-out: IC90 values, MEAN): 0.15 µM
IC50 ([3]; Plasmodium falciparum, NF54, NF54CTL, MEAN, source data of Fig. 2, read-out: IC50 values, MEAN): 84.8 nM
IC50 ([3]; Plasmodium falciparum, NF54, NF54CTL, single experiments, source data of Fig. 2 (nM in Supplementary Table 5), read-out: IC50 values): 89.3 nM
